Experimental data as given in patent US9040727B2, “Histone deacetylase inhibitor of benzamides and use thereof” (Shanghai Institute of Pharmaceutical Industry, priority 2011, dated 2015).
Where two headings read alike, the source gives them in different places.

How the values were obtained:
[1] = tested on: HDACs; assay: In vitro inhibition of HDACs (HDAC Inhibitor Drug Screening Kit); assay type: biochemical; settings: for inhibitory activity on HDACs compared with MS-275 (by IC50): comparison with MS-275
Experimental: The test was conducted according to the instructions in the HDAC Inhibitor Drug Screening Kit (Biovision/Catalog #50051, BPS).
(§1) Each dilution sample was placed in two wells and the enzyme inhibition IC50 of the compound was tested.

[2] = tested on: A549 human lung cancer cells; assay: In vitro anti-proliferative effect, CCK-8 method; assay type: cell-based
Experimental: (§2) The inhibitory activities of the compounds towards Hut78 T lymphocytic leukemia cells, Jurkat E6-1 human T-cell lymphoma, A549 human lung cancer cells, K562 human chronic myelogenous leukemia cells, Hep3B2.1-7 human liver cancer cells, MDA-MB-435s human breast cancer cells, Colo320 human rectal cancer cell line, and PC-3 human prostate cancer were determined. The inhibition percentages as represented by IC50 values were obtained through CCK-8 method.

[3] = tested on: Colo320 human rectal cancer cell line; assay: In vitro anti-proliferative effect, CCK-8 method; assay type: cell-based
Experimental: as §2

[4] = tested on: PC-3 human prostate cancer; assay: In vitro anti-proliferative effect, CCK-8 method; assay type: cell-based
Experimental: as §2

[5] = tested on: Hep3B2.1-7 human liver cancer cells; assay: In vitro anti-proliferative effect, CCK-8 method; assay type: cell-based; settings: Hep3B
Experimental: as §2

[6] = tested on: Jurkat E6-1 human T-cell lymphoma; assay: In vitro anti-proliferative effect, CCK-8 method; assay type: cell-based
Experimental: as §2

[7] = tested on: Hut78 T lymphocytic leukemia cells; assay: In vitro anti-proliferative effect, CCK-8 method; assay type: cell-based
Experimental: as §2

[8] = tested on: MDA-MB-435s human breast cancer cells; assay: In vitro anti-proliferative effect, CCK-8 method; assay type: cell-based
Experimental: as §2

[9] = molecular target: HDAC1 (Homo sapiens (Human), UniProt Q13547); assay: In vitro inhibitory activity towards HDAC1 (HDAC Inhibitor Drug Screening Kit); assay type: biochemical; settings: for inhibitory activity against HDAC1 compared with MS-275 (by IC50): comparison with MS-275; for inhibition at 1 µM: compound at 1 μM; for inhibition at 10 µM: compound at 10 μM
HDAC1, sequence (Q13547 whole entry): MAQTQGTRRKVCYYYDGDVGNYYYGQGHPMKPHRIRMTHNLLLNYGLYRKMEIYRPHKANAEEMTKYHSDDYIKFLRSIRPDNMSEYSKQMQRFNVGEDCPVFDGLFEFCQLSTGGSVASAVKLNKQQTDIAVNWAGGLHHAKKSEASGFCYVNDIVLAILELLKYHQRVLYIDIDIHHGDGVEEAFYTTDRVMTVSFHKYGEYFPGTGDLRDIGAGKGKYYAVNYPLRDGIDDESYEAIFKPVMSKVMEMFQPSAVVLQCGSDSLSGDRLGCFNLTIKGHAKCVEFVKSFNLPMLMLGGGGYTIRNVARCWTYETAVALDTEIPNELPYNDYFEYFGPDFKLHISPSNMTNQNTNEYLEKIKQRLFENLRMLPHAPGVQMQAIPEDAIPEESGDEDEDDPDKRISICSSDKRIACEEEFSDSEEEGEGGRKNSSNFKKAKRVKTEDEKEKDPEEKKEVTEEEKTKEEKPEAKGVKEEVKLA
Experimental: (1) The compounds to be tested were each individually prepared as 10 μM and 1 μM solutions and their inhibitory activities towards HDAC1 at these concentrations were tested.
as §1

[10] = tested on: multiple strains of tumor cells; assay: In vitro inhibition of proliferation of tumor cell strains (overall comparison); assay type: cell-based; settings: comparison with MS-275
Experimental: as §2

[11] = tested on: K562 human chronic myelogenous leukemia cells; assay: In vitro anti-proliferative effect, CCK-8 method; assay type: cell-based
Experimental: as §2

[12] = Preliminary pharmacokinetic experiment; settings: in vivo, rat
[13] = molecular target: hERG potassium channel (Homo sapiens (Human), UniProt Q12809); assay: Effects on hERG potassium channel; assay type: cell-based; settings: for inhibition at 10 µM: human, hERG potassium current, read-out: Maximum inhibition percentage at 10 μM; for IC50: read-out: Half inhibition concentration for the effect on hERG potassium current IC50
hERG potassium channel, sequence (Q12809 whole entry): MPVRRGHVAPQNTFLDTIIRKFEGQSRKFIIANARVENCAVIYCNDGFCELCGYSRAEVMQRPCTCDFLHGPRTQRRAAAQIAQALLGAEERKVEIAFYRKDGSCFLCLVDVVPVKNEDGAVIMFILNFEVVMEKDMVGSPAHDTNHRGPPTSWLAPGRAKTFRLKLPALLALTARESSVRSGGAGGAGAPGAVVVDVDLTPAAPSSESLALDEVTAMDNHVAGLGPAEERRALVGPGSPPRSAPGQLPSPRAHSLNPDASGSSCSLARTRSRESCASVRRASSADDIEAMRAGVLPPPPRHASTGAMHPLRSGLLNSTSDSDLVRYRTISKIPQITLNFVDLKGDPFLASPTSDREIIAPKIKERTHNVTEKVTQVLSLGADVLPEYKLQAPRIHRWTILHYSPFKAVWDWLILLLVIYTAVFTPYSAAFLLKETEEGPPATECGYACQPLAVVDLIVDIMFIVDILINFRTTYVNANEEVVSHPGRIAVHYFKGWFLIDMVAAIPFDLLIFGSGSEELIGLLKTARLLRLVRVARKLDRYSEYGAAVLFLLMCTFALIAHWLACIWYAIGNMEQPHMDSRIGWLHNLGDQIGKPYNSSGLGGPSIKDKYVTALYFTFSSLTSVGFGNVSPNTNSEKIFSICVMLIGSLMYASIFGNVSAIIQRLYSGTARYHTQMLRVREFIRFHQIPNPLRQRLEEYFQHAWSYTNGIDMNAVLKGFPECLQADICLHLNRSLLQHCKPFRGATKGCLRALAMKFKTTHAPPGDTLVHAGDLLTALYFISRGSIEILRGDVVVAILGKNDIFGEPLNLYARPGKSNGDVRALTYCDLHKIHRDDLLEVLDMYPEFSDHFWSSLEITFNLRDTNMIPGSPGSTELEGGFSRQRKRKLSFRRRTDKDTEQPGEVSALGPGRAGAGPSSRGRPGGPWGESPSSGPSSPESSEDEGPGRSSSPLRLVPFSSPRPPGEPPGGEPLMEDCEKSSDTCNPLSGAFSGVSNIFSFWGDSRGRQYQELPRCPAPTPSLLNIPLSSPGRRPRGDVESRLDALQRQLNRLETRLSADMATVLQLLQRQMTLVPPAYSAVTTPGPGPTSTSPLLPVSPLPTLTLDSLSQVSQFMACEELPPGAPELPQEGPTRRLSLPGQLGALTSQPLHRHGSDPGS

[14] = iv, 2 mg/kg, i.v., read-out: Intravenous half-life (converted)
[15] = oral, read-out: Oral half-life (converted)

| Structure (SMILES) | IC50 [1] | IC50 [9] | inhibitory activity against HDAC1 compared with MS-275 (by IC50) [9] | inhibition at 1 µM [9] | inhibition at 10 µM [9] | inhibition rate for tumor cells compared with MS-275 [10] | IC50 [11] | IC50 ([4]; Homo sapiens) | IC50 ([5]; Homo sapiens) | IC50 ([7]; Homo sapiens, HuT78) | IC50 ([3]; Homo sapiens, COLO 320) | IC50 ([2]; Homo sapiens) | IC50 ([6]; Homo sapiens) | also measured |
| --- | --- | --- | --- | --- | --- | --- | --- | --- | --- | --- | --- | --- | --- | --- |
| Nc1ccccc1NC(=O)c1ccc(CNC(=O)OCc2cccnc2)cc1 [MS-275, reference compound] | 3.52 µM | – | – | – | – | – | – | – | – | – | – | – | – | IC50 [2]: 2.28 µM; IC50 [3]: 0.522 µM; IC50 [4]: 0.502 µM; IC50 [5]: 6.82 µM; IC50 [6]: 0.561 µM; IC50 ([7]; Hut78): 0.528 µM; IC50 [8]: 2.71 µM |
| Cc1ccc2[nH]c(C(=O)NCc3ccc(C(=O)Nc4ccccc4N)cc3)cc2c1 [Compound V-19] | 1.14 µM | 0.414 µM | better inhibitory activities against HDAC1 as compared with MS-275 | 73.1% | 84% | higher inhibition rate for multiple strains of tumor cells as compared with MS-275 | 1.91 µM | 0.191 µM | 10.2 µM | 1.19 µM | – | – | – | inhibitory activity on HDACs compared with MS-275 (by IC50) [1]: better inhibitory activities than MS-275 |
| Nc1cnccc1NC(=O)c1ccc(CNC(=O)c2cccc3ccccc23)cc1 [Compound V-16] | 3.11 µM | 0.276 µM | better inhibitory activities against HDAC1 as compared with MS-275 | 62.5% | 85.1% | – | 6.08 µM | – | 3.36 µM | 1.79 µM | 86 µM | – | – | inhibitory activity on HDACs compared with MS-275 (by IC50) [1]: better inhibitory activities than MS-275 |
| Nc1ccc(F)cc1NC(=O)c1ccc(CNC(=O)c2cc3ccccc3o2)cc1 [Compound V-9] | – | – | better inhibitory activities against HDAC1 as compared with MS-275 | 37.9% | 69.1% | – | 17.1 µM | 2.24 µM | 15.9 µM | 3.46 µM | – | 21.2 µM | 2.13 µM | half-life [12, 14]: 0.95 h; bioavailability ([12]; oral): 28.8%; half-life [12, 15]: 6.37 h; inhibition at 10 µM [13]: 19.9 ± 6.7%; IC50 [13]: > 10 µM; IC50 ([8]; Homo sapiens): 14.8 µM |
| Nc1cnccc1NC(=O)c1ccc(CNC(=O)c2cc3ccccc3[nH]2)cc1 [Compound V-6] | 7.79 µM | 0.344 µM | better inhibitory activities against HDAC1 as compared with MS-275 | 68.5% | 74.5% | higher inhibition rate for multiple strains of tumor cells as compared with MS-275 | 2.09 µM | 0.37 µM | 3.07 µM | 0.0088 µM | 3.13 µM | 1.25 µM | 0.128 µM | – |
| CC(=O)Nc1ccc2[nH]c(C(=O)NCc3ccc(C(=O)Nc4ccccc4N)cc3)cc2c1 [Compound V-25] | 1.02 µM | 0.301 µM | better inhibitory activities against HDAC1 as compared with MS-275 | 53.9% | 76.2% | higher inhibition rate for multiple strains of tumor cells as compared with MS-275 | – | 0.069 µM | – | 0.877 µM | – | 0.295 µM | – | – |
| Nc1ccccc1NC(=O)c1ccc(CNC(=O)c2cc3ccccc3[nH]2)cc1 [Compound V-5] | – | – | better inhibitory activities against HDAC1 as compared with MS-275 | 59.6% | 81.1% | – | 1.31 µM | 0.242 µM | 3.46 µM | 0.0194 µM | 2.45 µM | 2.64 µM | 0.179 µM | half-life [12, 14]: 1.27 h; bioavailability ([12]; oral): 7.84%; half-life [12, 15]: 3.7 h; inhibition at 10 µM [13]: 11.5 ± 0.8%; IC50 [13]: > 10 µM |
| Nc1ccc(F)cc1NC(=O)c1ccc(CNC(=O)c2cc3ccccc3s2)cc1 [Compound V-27] | 1.22 µM | 0.276 µM | better inhibitory activities against HDAC1 as compared with MS-275 | 47.6% | 80.2% | higher inhibition rate for multiple strains of tumor cells as compared with MS-275 | 2.81 µM | 3.57 µM | 16 µM | 0.0558 µM | 27 µM | 5.09 µM | 1.39 µM | – |
| Nc1ccc(-c2ccco2)cc1NC(=O)c1ccc(CNC(=O)c2nc3ccccc3[nH]2)cc1 [Compound V-14] | – | – | better inhibitory activities against HDAC1 as compared with MS-275 | 74.8% | 87.2% | – | 0.437 µM | – | 1.52 µM | 0.356 µM | – | 3.14 µM | 0.458 µM | – |
| Nc1ccccc1NC(=O)c1ccc(CNC(=O)c2cccc3ccccc23)cc1 [Compound V-15] | – | – | better inhibitory activities against HDAC1 as compared with MS-275 | 29.8% | 67.5% | – | 2.88 µM | 2.63 µM | 2.76 µM | 2.78 µM | 9.34 µM | – | 1.37 µM | inhibitory activity on HDACs compared with MS-275 (by IC50) [1]: better inhibitory activities than MS-275 |
| CC(=O)c1ccc2[nH]c(C(=O)NCc3ccc(C(=O)Nc4ccccc4N)cc3)cc2c1 [Compound V-26] | 1.37 µM | 0.509 µM | better inhibitory activities against HDAC1 as compared with MS-275 | 59.3% | 70.8% | – | 19.9 µM | 12.2 µM | 52.2 µM | 0.231 µM | 88.4 µM | 29.9 µM | 12.4 µM | – |
